Values of other authors as cited in the PKSmart pharmacokinetics tables (Seal et al. 2025).

Assay: Lombardo, Berellini, Obach 2018, Drug Metab Dispos 46:1466, doi 10.1124/dmd.118.082966
Details: human; for MRT / Vd / clearance / half-life: in vivo, iv; for fraction unbound: plasma

SMILES | MRT | Vd | clearance | half-life | fraction unbound
O=c1ccc2ccccc2o1 | 0.78 h | 1.1 L/kg | 1.42 L/h/kg | 0.8 h | 0.17
CN(C)Cc1nnc2n1-c1ccc(Cl)cc1C(c1ccccc1)=NC2 | 2.6 h | 0.98 L/kg | 0.372 L/h/kg | 2.1 h | –
CCOC(=O)Nc1ccc(NCc2ccc(F)cc2)cc1N | 5 h | 2.5 L/kg | 0.498 L/h/kg | 9 h | 0.2
COc1cc2c(N)nc(N3CCN(C(=O)OCC(C)(C)O)CC3)nc2c(OC)c1OC | 3.1 h | 0.18 L/kg | 0.0576 L/h/kg | 3.1 h | –
C[C@@H](O)C1C(=O)N2C(C(=O)O)=C(CN)S[C@H]12 (stereo not given in full) | 0.5 h | 0.23 L/kg | 0.46 L/h/kg | 0.5 h | –
C[C@@H]1C[C@H]2C3C[C@H](F)C4=CC(=O)C=C[C@]4(C)[C@@]3(F)[C@@H](O)C[C@]2(C)[C@@]1(OC(=O)c1ccco1)C(=O)SCF (stereo not given in full) | – | 4.95 L/kg | 0.804 L/h/kg | 10.6 h | –
COC1=C(C(=O)O)N2C(=O)C(NC(=O)C(N)C3=CCC=CC3)[C@H]2SC1 (stereo not given in full) | 0.59 h | 0.17 L/kg | 0.287 L/h/kg | 0.74 h | 0.1
NNC(=O)c1ccncc1 | 1.8 h | 0.82 L/kg | 0.444 L/h/kg | – | 1
CC1=NS(=O)(=O)c2cc(Cl)ccc2N1 | 58 h | 0.21 L/kg | 0.0036 L/h/kg | 48 h | –
NC(CCC(=O)NC(Cc1ccc(O)c(O)c1)C(=O)O)C(=O)O (stereo not given) | 0.74 h | 0.21 L/kg | 0.276 L/h/kg | 0.5 h | –
NCCc1ccc(O)c(O)c1 | 0.19 h | 0.74 L/kg | 3.95 L/h/kg | 0.42 h | 0.87
Cn1cncc1[C@@](N)(c1ccc(Cl)cc1)c1ccc2c(c1)c(-c1cccc(Cl)c1)cc(=O)n2C | 3.07 h | 0.93 L/kg | 0.302 L/h/kg | 2.52 h | 0.006
CCCCC[C@@H](O)CC[C@H]1[C@@H]2Cc3cccc(OCC(=O)O)c3C[C@@H]2C[C@@H]1O | 0.36 h | 0.23 L/kg | 0.642 L/h/kg | 0.82 h | 0.09
CC(C(=O)O)c1ccc(C(=O)c2cccs2)cc1 (stereo not given) | 0.88 h | 0.04 L/kg | 0.0456 L/h/kg | 2.1 h | –
CN(C)C(=O)Oc1ccc[n+](C)c1 | 1.8 h | 1.1 L/kg | 0.576 L/h/kg | 1.5 h | –
CCCC(C)C1(CC)C(=O)NC(=S)NC1=O (stereo not given) | 2.4 h | 1.2 L/kg | 0.492 L/h/kg | 2 h | 0.14
CCCc1c2oc(C(=O)O)cc(=O)c2cc2c(=O)cc(C(=O)O)n(CC)c12 | 0.7 h | 0.43 L/kg | 0.612 L/h/kg | 0.9 h | 0.11
CO[C@]1(NC(=O)CSC(F)F)C(=O)N2C(C(=O)O)=C(CSc3nnnn3CCO)CO[C@@H]21 | 0.77 h | 0.19 L/kg | – | 0.6 h | 0.64

SMILES | MRT | Vd | clearance | half-life | fraction unbound
CN[C@@H]1CCc2[nH]c3ccc(C(N)=O)cc3c2C1 | 22 h | 3.6 L/kg | 0.15 L/h/kg | 24 h | –
Cc1ccc(-n2ccnc2)cc1C(O)c1c(C)cc(C(=O)O)cc1C (stereo not given) | 2.17 h | 0.37 L/kg | 0.175 L/h/kg | 2.37 h | –
CN1CC[C@]23CCCC[C@H]2[C@H]1Cc1ccc(O)cc13 | 12.2 h | 11.5 L/kg | 0.942 L/h/kg | 13.5 h | 0.6
NC(Cc1ccccn1)c1ccccc1 (stereo not given) | 15.1 h | 1.62 L/kg | 0.108 L/h/kg | 10.4 h | –
CC(C)C(=O)OCC(=O)[C@]12O[C@@H](C3CCCCC3)O[C@@H]1C[C@@H]1[C@@H]3CC=C4CC(=O)C=C[C@]4(C)[C@H]3[C@@H](O)C[C@@]12C | 1.45 h | 2.9 L/kg | 2 L/h/kg | 1.04 h | 0.01
CC[C@H](CC[C@@H](C)[C@H]1CC[C@H]2[C@@H]3CC=C4C[C@@H](O)CC[C@]4(C)[C@H]3CC[C@]12C)C(C)C | 250 h | 0.3 L/kg | 0.0012 L/h/kg | 372 h | –
NCCC(O)C(=O)N[C@@H]1C[C@H](N)[C@@H](O[C@H]2O[C@H](CN)CC[C@H]2N)[C@H](O)[C@H]1O[C@H]1O[C@H](CO)[C@@H](O)[C@H](N)[C@H]1O (stereo not given in full) | 2.73 h | 0.21 L/kg | 0.0768 L/h/kg | 2.46 h | –
COc1ccc2[nH]cc(CCNC(C)=O)c2c1 | 1.1 h | 1.1 L/kg | 0.99 L/h/kg | 1.1 h | 0.39
O=C(O[C@H]1C[C@H]2CC3C[C@@H](C1)N2CC3=O)c1c[nH]c2ccccc12 | 0.19 h | 2 L/kg | – | 0.13 h | 0.49
Cc1nc(=O)c(C#N)c(NCc2cccnc2)[nH]1 | 1.1 h | 0.39 L/kg | 0.348 L/h/kg | 0.95 h | 0.05
NC(=O)c1cccc(N)c1 | 4 h | 1.9 L/kg | 0.474 L/h/kg | 5 h | –
C[C@@](O)(/C=C/[C@H]1CC=CC(=O)O1)[C@@H](C[C@@H](O)\C=C/C=C\C=C\CO)OP(=O)(O)O | 1.2 h | 0.086 L/kg | 0.072 L/h/kg | 1.5 h | –
CC(C)=CCN1Cc2cc(Cl)cc3[nH]c(=S)n(c23)C[C@@H]1C | 35.2 h | 22 L/kg | 0.625 L/h/kg | 26 h | –
CCNC(=O)OC1CCN(c2nncc3cc(OC)c(OC)cc23)CC1 | 0.25 h | 0.67 L/kg | – | – | 0.08
CCCNC(=O)NS(=O)(=O)c1ccc(Cl)cc1 | 70 h | 0.19 L/kg | 0.0027 L/h/kg | 46 h | –
CC1(C)S[C@@H]2C(NC(=O)Cc3ccccc3)C(=O)N2C1C(=O)O (stereo not given in full) | 0.58 h | 0.24 L/kg | 0.414 L/h/kg | 0.7 h | 0.4
CNCC[C@@H](O)[C@@H]1C[C@H](SC2=C(C(=O)O)N3C(=O)C([C@@H](C)O)[C@H]3[C@H]2C)CN1 (stereo not given in full) | 2.04 h | 0.22 L/kg | 0.121 L/h/kg | 1.48 h | –
CNC(=O)N(N(CCCl)S(C)(=O)=O)S(C)(=O)=O | 0.63 h | 0.88 L/kg | 1.39 L/h/kg | 0.49 h | –
